Experimental data as given in EP0216290A2, “Use of thienyl amines as agents with an output-accelerating effect; thienyl amine” (BAYER AG, priority 1985, dated 1987).

Each compound was assayed on Weibliche Laborratten (assay: Rat feeding test (Ratten-Fütterungsversuch, Beispiel A)). Conditions: 25 ppm in feed ad lib, 13-day test, 12 female rats per group; relative to control without active substance = 100.
Format: in vivo, Laborratten vom Typ SPF Wistar
Source text: Weibliche Laborratten 90-110 g schwer vom Typ SPF Wistar (Züchtung Hagemann) werden ad lib mit Standard Rattenfutter, das mit der gewünschten Menge Wirkstoff versetzt ist, gefüttert. Jeder Versuchsansatz wird mit Futter der identischen Charge durchgeführt, so daß Unterschiede in der Zusammensetzung des Futters die Vergleichbarkeit der Ergebnisse nicht beeinträchtigen können.
Die Ratten erhalten Wasser ad lib.
Jeweils 12 Ratten bilden eine Versuchsgruppe und werden mit Futter, das mit der gewünschten Menge Wirkstoff versetzt ist, gefüttert. Eine Kontrollgruppe erhält Futter ohne Wirkstoff. Das durchschnittliche Körpergewicht sowie die Streuung in den Körpergewichten der Ratten ist in jeder Versuchsgruppe gleich, so daß eine Vergleichbarkeit der Versuchsgruppen untereinander gewährleistet ist.
Während des 13-tägigen Versuchs werden Gewichtszunahme und Futterverbrauch bestimmt.
Es werden die aus der Tabelle ersichtlichen Ergebnisse erhalten: […]

Question: Which Gewichtszunahme does the source give for CCOC(=O)c1cc(CC)sc1NC(=O)Oc1ccccc1 [Bsp. 56] here?
Answer: 116

Question: With COC(=O)Nc1sc2c(c1C(=O)OC)CCCC2 [Bsp. 31] as the compound, how does the Gewichtszunahme read?
Answer: 109

Question: Which Gewichtszunahme does the source give for CCCCCc1cc(C(=O)OCC)c(NC(=O)Oc2ccccc2C)s1 [Bsp. 20] here?
Answer: 109

Question: For CCCCCc1cc(C(=O)OCC)c(NC(=O)OC2CCCCC2)s1 [Bsp. 19], which Gewichtszunahme is on record?
Answer: 115

Question: CCOC(=O)c1c(NC(=O)OC)sc(C)c1CC [Bsp. 1, 2-Aminomethoxycarbonyl-3-carbethoxy-4-ethyl-5-methylthiophen] was tested. Which Gewichtszunahme did it give?
Answer: 119
